Measured values published in PubChem BioAssay (NCI).
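Each compound was tested at five concentrations against cells in 96-well plates for 48 hours. TGI: concentration producing complete growth inhibition.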

Key:
Assay in all cases: NCI-60 cell line screen, 48 h
[1] = tested on: SK-MEL-28 melanoma
[2] = tested on: SNB-75 CNS
[3] = tested on: MDA-MB-231 breast
[4] = tested on: MDA-N
[5] = tested on: NCI/ADR-RES ovarian
[6] = tested on: SW-620 colon
[7] = tested on: EKVX NSCLC
[8] = tested on: U251 CNS
[9] = tested on: HT29 colon
[10] = tested on: UO-31 renal
[11] = tested on: KM12 colon
[12] = tested on: TK-10 renal
[13] = tested on: OVCAR-3 ovarian
[14] = tested on: HCT-116 colon
[15] = tested on: MALME-3M melanoma
[16] = tested on: RPMI-8226 leukemia
[17] = tested on: NCI-H460 lung
[18] = tested on: M14 melanoma
[19] = tested on: OVCAR-5 ovarian
[20] = tested on: MCF7 breast
[21] = tested on: SK-OV-3 ovarian
[22] = tested on: SF-295 CNS
[23] = tested on: SN12C renal
[24] = tested on: LOX IMVI melanoma
[25] = tested on: 786-0 renal
[26] = tested on: NCI-H226 lung
[27] = tested on: HS 578T breast
[28] = tested on: SNB-19 CNS
[29] = tested on: CCRF-CEM leukemia
[30] = tested on: ACHN renal
[31] = tested on: A498 renal
[32] = tested on: HOP-62 NSCLC
[33] = tested on: NCI-H522 lung
[34] = tested on: RXF 393 renal
[35] = tested on: SK-MEL-5 melanoma
[36] = tested on: UACC-62 melanoma
[37] = tested on: HL-60(TB) leukemia
[38] = tested on: SF-268 CNS
[39] = tested on: MOLT-4 leukemia
[40] = tested on: A549 NSCLC
[41] = tested on: HCC-2998 colon
[42] = tested on: HOP-92 NSCLC
[43] = tested on: IGROV1 ovarian
[44] = tested on: SK-MEL-2 melanoma
[45] = tested on: CAKI-1 renal
[46] = tested on: PC-3 prostate
[47] = tested on: T-47D breast
[48] = tested on: BT-549 breast
[49] = tested on: HCT-15 colon
[50] = tested on: UACC-257 melanoma
[51] = tested on: DU-145 prostate
[52] = tested on: MDA-MB-435
[53] = tested on: K-562 leukemia
[54] = tested on: OVCAR-8 ovarian
[55] = tested on: NCI-H23 lung
[56] = tested on: COLO 205 colon
[57] = tested on: SF-539 CNS
[58] = tested on: OVCAR-4 ovarian
[59] = tested on: SR leukemia

`CN1C(=O)C(O)CC1c1ccc(C(F)(F)F)cc1` (stereo unspecified) gave a TGI [1] of over 100 µM, a TGI [2] of over 100 µM and a TGI [3] of over 100 µM. It also gave a TGI [4] of over 100 µM, a TGI [5] of over 100 µM and a TGI [6] of over 100 µM. The TGI [7] was over 100 µM, the TGI [8] was over 100 µM and the TGI [9] was over 100 µM. The TGI [10] was over 100 µM, the TGI [11] was over 100 µM and the TGI [12] was over 100 µM. For the same molecule, the TGI [13] was over 100 µM, the TGI [14] was over 100 µM and the TGI [15] was over 100 µM. For the same molecule, the TGI [16] was over 100 µM, the TGI [17] was over 100 µM and the TGI [18] was over 100 µM. For the same molecule, the TGI [19] was over 100 µM, the TGI [20] was over 100 µM and the TGI [21] was over 100 µM. It also gave a TGI [22] of over 100 µM, a TGI [23] of over 100 µM and a TGI [24] of over 100 µM. It also gave a TGI [25] of over 100 µM, a TGI [26] of over 100 µM and a TGI [27] of over 100 µM. For the same molecule, the TGI [28] was over 100 µM, the TGI [29] was over 100 µM and the TGI [30] was over 100 µM. It also gave a TGI [31] of over 100 µM, a TGI [32] of over 100 µM and a TGI [33] of over 100 µM. The TGI [34] was over 100 µM, the TGI [35] was over 100 µM and the TGI [36] was over 100 µM. The TGI [37] was over 100 µM, the TGI [38] was over 100 µM and the TGI [39] was over 100 µM. The TGI [40] was over 100 µM, the TGI [41] was over 100 µM and the TGI [42] was over 100 µM. The TGI [43] was over 100 µM, the TGI [44] was over 100 µM and the TGI [45] was over 100 µM. It also gave a TGI [46] of over 100 µM, a TGI [47] of over 100 µM and a TGI [48] of over 100 µM. For the same molecule, the TGI [49] was over 100 µM, the TGI [50] was over 100 µM and the TGI [51] was over 100 µM. The TGI [52] was over 100 µM, the TGI [53] was over 100 µM and the TGI [54] was over 100 µM. For the same molecule, the TGI [55] was over 100 µM, the TGI [56] was over 100 µM and the TGI [57] was over 100 µM. It also gave a TGI [58] of over 100 µM.

`COc1ccc2c(N=[N+]=[N-])c(-c3ccccc3)c(=O)oc2c1` showed a TGI [1] of over 100 µM, a TGI [2] of over 100 µM and a TGI [3] of over 100 µM. The TGI [59] was 67.1 µM, the TGI [4] was over 100 µM and the TGI [6] was over 100 µM. For the same molecule, the TGI [7] was over 100 µM, the TGI [9] was over 100 µM and the TGI [11] was over 100 µM. The TGI [12] was over 100 µM, the TGI [14] was over 100 µM and the TGI [15] was over 100 µM. It also gave a TGI [16] of over 100 µM, a TGI [17] of over 100 µM and a TGI [18] of over 100 µM. It also gave a TGI [20] of over 100 µM, a TGI [21] of over 100 µM and a TGI [22] of over 100 µM. For the same molecule, the TGI [23] was over 100 µM, the TGI [24] was over 100 µM and the TGI [25] was over 100 µM. For the same molecule, the TGI [27] was over 100 µM, the TGI [29] was over 100 µM and the TGI [30] was over 100 µM. The TGI [31] was over 100 µM, the TGI [32] was over 100 µM and the TGI [33] was over 100 µM. For the same molecule, the TGI [35] was 77.3 µM, the TGI [36] was over 100 µM and the TGI [37] was 60.3 µM. The TGI [38] was over 100 µM, the TGI [39] was 73.1 µM and the TGI [40] was over 100 µM. It also gave a TGI [41] of over 100 µM, a TGI [43] of over 100 µM and a TGI [45] of over 100 µM. It also gave a TGI [46] of over 100 µM, a TGI [47] of over 100 µM and a TGI [48] of over 100 µM. The TGI [49] was over 100 µM, the TGI [50] was 85.6 µM and the TGI [51] was over 100 µM. The TGI [52] was over 100 µM, the TGI [53] was over 100 µM and the TGI [54] was over 100 µM. It also gave a TGI [55] of over 100 µM, a TGI [56] of over 100 µM and a TGI [57] of over 100 µM.

In the case of `O=c1cc(N2CCOCC2)[nH]c(=O)n1-c1cccc(Cl)c1`, the TGI [1] is reported as over 100 µM, the TGI [2] is reported as over 100 µM and the TGI [3] is reported as over 100 µM. The TGI [4] was over 100 µM, the TGI [5] was over 100 µM and the TGI [6] was over 100 µM. It also gave a TGI [7] of over 100 µM, a TGI [8] of over 100 µM and a TGI [9] of over 100 µM. The TGI [11] was over 100 µM, the TGI [12] was over 100 µM and the TGI [13] was over 100 µM. The TGI [14] was over 100 µM, the TGI [15] was over 100 µM and the TGI [16] was over 100 µM. It also gave a TGI [17] of over 100 µM, a TGI [18] of over 100 µM and a TGI [19] of over 100 µM. The TGI [20] was over 100 µM, the TGI [21] was over 100 µM and the TGI [22] was over 100 µM. The TGI [23] was over 100 µM, the TGI [24] was over 100 µM and the TGI [25] was over 100 µM. The TGI [26] was over 100 µM, the TGI [27] was over 100 µM and the TGI [28] was over 100 µM. The TGI [29] was over 100 µM, the TGI [30] was over 100 µM and the TGI [31] was over 100 µM. The TGI [32] was over 100 µM, the TGI [33] was over 100 µM and the TGI [34] was over 100 µM. For the same molecule, the TGI [36] was over 100 µM, the TGI [37] was over 100 µM and the TGI [38] was over 100 µM. For the same molecule, the TGI [39] was over 100 µM, the TGI [41] was over 100 µM and the TGI [42] was over 100 µM. For the same molecule, the TGI [43] was over 100 µM, the TGI [44] was over 100 µM and the TGI [45] was over 100 µM. The TGI [46] was over 100 µM, the TGI [47] was over 100 µM and the TGI [48] was over 100 µM. It also gave a TGI [49] of over 100 µM, a TGI [50] of over 100 µM and a TGI [51] of over 100 µM. For the same molecule, the TGI [52] was over 100 µM, the TGI [53] was over 100 µM and the TGI [54] was over 100 µM. It also gave a TGI [55] of over 100 µM, a TGI [56] of over 100 µM and a TGI [57] of over 100 µM. It also gave a TGI [58] of over 100 µM.
